One assay relates to Entamoeba histolytica. Nature of the assay: Antiamoebic activity against trophozoites of Entamoeba histolytica HM-1:IMSS after 72 hr by eosin stain-based spectrophotometric analysis. The format is functional, organism-based.
The next assay concerns MCF7. As to the kind of experiment: Cytotoxicity against Homo sapiens (human) MCF7 cells after 48 hr by MTT assay. The format is cell-based. To be noted: MCF7, 48 h.

In the assay on Entamoeba histolytica, `Nc1nnc(-c2ccccc2)s1` registered an IC50 of 5.46 µM.

Take `Cc1ncc([N+](=O)[O-])n1CCO` [METRONIDAZOLE]: the 50% inhibitory concentration (IC50) in the assay on MCF7 is above 250 µM.

The values above are taken from ChEMBL document CHEMBL3046634, “Synthesis of some 1,3,4-thiadiazole derivatives as inhibitors of Entamoeba histolytica” (Med Chem Res, 2013).
